Measurements as given in patent publication US5726316A, “Pharmaceutical compositions for prevention and treatment of central nervous system disorders” (priority 1997, dated 1998).

How the values were obtained:
[1] = system: synaptosomes from the striatal area of rat brain; assay: Dopamine release from striatal synaptosomes; assay type: biochemical, rat (Sprague-Dawley); conditions: relative to (S)-(-)-nicotine
Method: Dopamine release was measured by preparing synaptosomes from the striatal area of rat brain obtained from Sprague-Dawley rats generally according to the procedures set forth by Nagy et al., J. Neurochem., Vol. 43, pp. 1114-1123 (1984). Striata from 4 rats were homogenized in 2 ml of 0.32M sucrose buffered with 5 mM HEPES (pH 7.5), using a glass-Teflon tissue grinder. The homogenate was diluted to 5 ml with additional homogenization solution and centrifuged at 1,000×g for 10 min. This procedure was repeated on the new pellet and the resulting supernatant was centrifuged at 12,000×g for 20 min. A 3 layer discontinuous Percoll gradient consisting of 16 percent, 10 percent and 7.5 percent Percoll in HEPES-buffered sucrose was made with the final pellet dispersed in the top layer. […] Using this method, 30 to 90 percent of the dopamine was taken up into the synaptosomes, as determined by scintillation counting following filtration through glass fiber filters soaked with 0.5 percent polyethyleneimine. […] After the addition of 0.2 ml of a solution containing various concentrations of ligand, the perfusate was collected into scintillation vials at 1 min. intervals and the dopamine release was quantified by scintillation counting. Peaks of radioactivity released above background were summed and the average basal release during that time was substracted from the total.

[2] = molecular target: T1, muscle-like nicotinic receptors (human clonal line TE671/RD) (Homo sapiens, UniProt P02708+P07510+Q07001); assay type: cell-based; conditions: te671/rd cells
T1 construct: Intact cells on dishes were used for functional studies; endogenous in cells; host or cells: TE671/RD (human embryonal rhabdomyosarcoma)
T1 sequence (P02708 21-457): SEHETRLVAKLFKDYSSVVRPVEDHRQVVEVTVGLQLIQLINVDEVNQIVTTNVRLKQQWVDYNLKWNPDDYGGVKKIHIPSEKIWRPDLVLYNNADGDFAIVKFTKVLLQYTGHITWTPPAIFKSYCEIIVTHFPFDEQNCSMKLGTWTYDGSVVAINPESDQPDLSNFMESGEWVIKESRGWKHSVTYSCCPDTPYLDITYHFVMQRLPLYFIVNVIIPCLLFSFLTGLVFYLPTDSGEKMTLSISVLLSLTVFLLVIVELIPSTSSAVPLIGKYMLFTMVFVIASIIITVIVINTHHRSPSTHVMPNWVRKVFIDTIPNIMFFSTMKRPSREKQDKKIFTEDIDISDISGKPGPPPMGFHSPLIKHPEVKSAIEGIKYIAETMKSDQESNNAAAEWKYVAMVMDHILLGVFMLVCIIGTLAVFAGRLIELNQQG
T1 sequence (Q07001 22-517): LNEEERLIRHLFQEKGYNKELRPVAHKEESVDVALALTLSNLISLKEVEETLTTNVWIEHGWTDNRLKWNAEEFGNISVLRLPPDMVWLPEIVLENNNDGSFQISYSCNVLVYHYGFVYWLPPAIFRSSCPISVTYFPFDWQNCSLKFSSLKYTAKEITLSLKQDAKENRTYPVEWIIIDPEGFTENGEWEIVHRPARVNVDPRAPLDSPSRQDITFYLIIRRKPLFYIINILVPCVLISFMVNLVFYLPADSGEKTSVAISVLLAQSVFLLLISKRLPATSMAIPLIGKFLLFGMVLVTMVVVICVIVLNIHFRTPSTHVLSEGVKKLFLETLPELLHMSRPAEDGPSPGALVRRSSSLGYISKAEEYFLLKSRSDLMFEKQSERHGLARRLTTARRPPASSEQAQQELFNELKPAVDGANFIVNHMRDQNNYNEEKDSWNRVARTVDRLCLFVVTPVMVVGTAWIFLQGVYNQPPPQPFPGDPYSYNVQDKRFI
T1 sequence (P07510 23-517): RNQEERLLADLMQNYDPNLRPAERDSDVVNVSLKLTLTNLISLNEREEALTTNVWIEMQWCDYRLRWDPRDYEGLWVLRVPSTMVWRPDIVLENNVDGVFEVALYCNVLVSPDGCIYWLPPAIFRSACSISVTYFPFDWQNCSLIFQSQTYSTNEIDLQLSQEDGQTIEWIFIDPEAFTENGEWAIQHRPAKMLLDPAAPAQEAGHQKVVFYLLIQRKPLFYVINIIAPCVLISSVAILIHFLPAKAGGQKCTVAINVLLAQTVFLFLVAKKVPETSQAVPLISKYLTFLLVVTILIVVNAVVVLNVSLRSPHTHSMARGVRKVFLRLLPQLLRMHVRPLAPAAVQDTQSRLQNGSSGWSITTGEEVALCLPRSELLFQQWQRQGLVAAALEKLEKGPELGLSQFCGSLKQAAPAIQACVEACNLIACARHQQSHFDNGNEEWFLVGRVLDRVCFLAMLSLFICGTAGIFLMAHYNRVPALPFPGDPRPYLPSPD
Method: Dose-response curves were plotted and the concentration resulting in half maximal activation of specific ion flux through nicotinic receptors determined for human muscle and rat ganglionic preparations (EC50).
(§1) Intact cells on dishes were used for functional studies.
(§2) Specific ion efflux was determined as the difference in isotope efflux between total and non-specific efflux samples. Dose-response curves were plotted and the concentration resulting in half maximal activation of specific ion flux through nicotinic receptors determined for human muscle and rat ganglionic preparations (EC50).

[3] = molecular target: nicotinic receptors (L-[3H]nicotine binding, rat brain membrane preparations); parameters: species or system rat (Sprague-Dawley); conditions: calculated from IC50 (Cheng et al.)
Method: Rats (Sprague-Dawley) were maintained on a 12 hour light/dark cycle and were allowed free access to water and food supplied by Wayne Lab Blox, Madison, Wis. Animals used in the present studies weighted 200 to 250 g. Brain membrane preparations were obtained from brain tissue of either males or females.
Rats were killed by decapitation following anesthesia with 70% CO2. Brains were removed and placed on an ice-cold platform. […] The resulting homogenate was centrifuged at 18,000×g for 20 min. and the resulting pellet was resuspended in 20 volumes of water. After 60 min. incubation at 4° C., a new pellet was collected by centrifugation at 18,000×g for 20 min. After resuspension in 10 volumes of buffer, a new final pellet was again collected by centrifugation at 18,000×g for 20 min. Prior to each centrifugation step, the suspension was incubated at 37° C. for 5 min. to promote hydrolysis of endogenous acetylcholine. The final pellet was overlayed with buffer and stoerd at -70° C. On the day of the assay, that pellet was thawed, resuspended in buffer and centrifuged at 18,000×g for 20 min. The pellet obtained was resuspended in buffer to a final concentration of approximately 5 mg protein/ml.
The binding of L-[^3 H]nicotine was measured using a 2 hr. incubation at 4° C. […] Nonspecific binding was determined by inclusion of 10 uM nonradioactive nicotine in the incubations.

[4] = molecular target: T2, ganglionic-type neuronal nicotinic receptors (pheochromocytoma clonal line PC12) (Rattus norvegicus, UniProt P04757+P12392); assay type: cell-based; conditions: pc12 cells
T2 construct: Intact cells on dishes were used for functional studies; endogenous in cells; host or cells: PC12 (rat pheochromocytoma)
T2 sequence (P04757 26-499): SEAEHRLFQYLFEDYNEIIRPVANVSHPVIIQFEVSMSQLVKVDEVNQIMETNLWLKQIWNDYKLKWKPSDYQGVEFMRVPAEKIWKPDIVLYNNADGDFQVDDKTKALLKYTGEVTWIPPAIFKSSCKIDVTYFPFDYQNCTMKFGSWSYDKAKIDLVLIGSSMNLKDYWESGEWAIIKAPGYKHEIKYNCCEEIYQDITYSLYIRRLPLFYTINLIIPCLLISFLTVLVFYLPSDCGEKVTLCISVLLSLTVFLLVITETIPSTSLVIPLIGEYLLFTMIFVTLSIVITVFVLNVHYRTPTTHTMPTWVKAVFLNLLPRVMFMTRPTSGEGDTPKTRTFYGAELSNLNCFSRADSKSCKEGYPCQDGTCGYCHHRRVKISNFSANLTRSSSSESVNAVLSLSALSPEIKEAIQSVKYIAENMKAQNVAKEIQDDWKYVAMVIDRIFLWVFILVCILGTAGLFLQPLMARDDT
T2 sequence (P12392 21-495): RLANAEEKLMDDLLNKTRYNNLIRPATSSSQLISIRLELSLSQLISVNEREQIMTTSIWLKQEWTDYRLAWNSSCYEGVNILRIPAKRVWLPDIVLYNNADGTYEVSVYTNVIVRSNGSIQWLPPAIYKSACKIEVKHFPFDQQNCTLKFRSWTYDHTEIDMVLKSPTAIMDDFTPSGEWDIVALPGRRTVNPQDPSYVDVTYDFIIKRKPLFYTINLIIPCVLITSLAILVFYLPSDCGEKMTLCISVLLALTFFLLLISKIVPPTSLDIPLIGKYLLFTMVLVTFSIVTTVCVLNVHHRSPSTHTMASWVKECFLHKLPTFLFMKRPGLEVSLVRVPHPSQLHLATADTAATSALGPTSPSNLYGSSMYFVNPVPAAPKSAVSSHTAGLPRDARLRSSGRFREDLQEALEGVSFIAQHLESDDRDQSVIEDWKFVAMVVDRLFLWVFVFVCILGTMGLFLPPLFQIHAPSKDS
Method: as §1, §2

CNCCCCc1cccnc1 [Sample No. 7, N-methyl-(3-pyridinyl)-buane-1-amine]
Dopamine Release Emax [1]: 72 % nicotine | Muscle Effect [2]: 0 % nicotine | Ki [3]: 910 nM | Ganglion Effect [4]: 31 % nicotine
